In US20250145665A1, “MACROCYCLIC PEPTIDES USEFUL AS MODULATORS OF TNF ALPHA” (Bristol-Myers Squibb Company, priority 2023, published 2025) one finds IC50 data, which are given here for 15 compounds.

Starred links: 1 amine or outer side, 2 acyl side, 3 side chain; linkers in the order of their positions; H or OH if unused. Positions of bridges follow the written chain, without caps; N, C: chain ends. Non-standard residues stand in square brackets, D forms with d. Residues, ends and D or L forms follow the SMILES beside them. ξ: configuration not given here. *: point of attachment. Bip(4'-NHCO-C6H4-3-CH2COOH) = N[C@@H](Cc1ccc(-c2ccc(NC(=O)c3cccc(CC(=O)O)c3)cc2)cc1)C(=O)O; X21 = N=C(NCCC[C@@H](N[*:1])C(=O)[*:2])NC[C@H](O)[C@@H](O)[C@@H](O)CO; Bip(4'-NH) = O=C([C@H](Cc1ccc(-c2ccc(N[*:3])cc2)cc1)N[*:1])[*:2]; Indazole3carbonyl(1-CH2COOH) = O=C(O)Cn1nc(C(=O)*)c2ccccc21; Bip(4'-COOH) = N[C@@H](Cc1ccc(-c2ccc(C(=O)O)cc2)cc1)C(=O)O; Bip(4'-NHAc) = CC(=O)Nc1ccc(-c2ccc(C[C@H](N)C(=O)O)cc2)cc1; X70 = O=C([C@H](Cc1ccc(-c2ccc(CN[*:3])cc2)cc1)N[*:1])[*:2]; X36 = N=C(NCCC[C@@H](N[*:1])C(=O)[*:2])NCc1cccc(C(=O)O)c1; Trp(1-CH2COOH) = N[C@@H](Cc1cn(CC(=O)O)c2ccccc12)C(=O)O; X63 = N=C(NCCC[C@@H](N[*:1])C(=O)[*:2])NCCc1cccc(O)c1; Ala(imidazol-2-yl) = N[C@@H](Cc1ncc[nH]1)C(=O)O; Ala(morpholin-4-yl) = N[C@@H](CN1CCOCC1)C(=O)O; Benzoyl(3-OCH2COOH) = O=C(O)COc1cccc(C(=O)*)c1; Phe(3-CONH2) = NC(=O)c1cccc(C[C@H](N)C(=O)O)c1; Bip = N[C@@H](Cc1ccc(-c2ccccc2)cc1)C(=O)O; Hyp = O=C(O)[C@@H]1C[C@@H](O)CN1; 2Pal = N[C@@H](Cc1ccccn1)C(=O)O; 2Thi = N[C@@H](Cc1cccs1)C(=O)O; Cha = N[C@@H](CC1CCCCC1)C(=O)O; Aze = O=C(O)[C@@H]1CCN1; ξP = O=C(O)C1CCCN1; Sar = CNCC(=O)O A value given as a limit tells only on which side of the number the result lay.

In one assay the target is TNFα (Homo sapiens, UniProt P01375). Nature of the assay: TNF-Induced HEK-Blue Assay. It is filed as cell-based.
Sequence of TNFα (P01375 77-233 limits assumed): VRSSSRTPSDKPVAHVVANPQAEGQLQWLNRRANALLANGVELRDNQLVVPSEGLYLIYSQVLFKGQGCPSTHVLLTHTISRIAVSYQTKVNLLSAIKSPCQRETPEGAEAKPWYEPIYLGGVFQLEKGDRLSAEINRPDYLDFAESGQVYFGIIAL
Settings: not given
Usually IC50 stands for the concentration at which inhibition is half-maximal. In turn, `CC(C)C[C@@H]1NC(=O)[C@H](CCCNC(=N)N)NC(=O)[C@H](C(C)C)NC(=O)[C@@H]2CCCN2C(=O)[C@H](C(C)C)NC(=O)[C@@H](CCCNC(=N)NCCc2cccc(O)c2)NC(=O)[C@H](CC(=O)O)NC(=O)[C@@H]2CCCN2C(=O)CN(C)C(=O)[C@H](Cc2ccc(-c3ccc(NC(=O)c4nn(CC(=O)O)c5ccccc45)cc3)cc2)NC(=O)[C@H](Cc2ccc(-c3ccccc3)cc2)NC(=O)[C@H](CN2CCOCC2)NC(=O)CSC[C@@H](C(=O)NCC(N)=O)NC1=O` [Example 366] ({CH2CO}-[Ala(morpholin-4-yl)][Bip][Bip(4'-NH)](Indazole3carbonyl(1-CH2COOH))[Sar]PD[X63]VPVRLCG-NH2; thioether N-13) showed an IC50 of under 50 nM.
Same read-out and setting: the value for `CC(C)C[C@@H]1NC(=O)[C@H](Cc2cccs2)NC(=O)[C@H](C(C)C)NC(=O)[C@@H]2CCCN2C(=O)[C@H](C(C)C)NC(=O)[C@@H](CCCNC(=N)NC[C@H](O)[C@@H](O)[C@@H](O)CO)NC(=O)[C@H](CC(=O)O)NC(=O)[C@H](Cc2ccccn2)NC(=O)CN(C)C(=O)[C@H](Cc2ccc(-c3ccc(NC(=O)c4nn(CC(=O)O)c5ccccc45)cc3)cc2)NC(=O)[C@H](Cc2ccc(-c3ccccc3)cc2)NC(=O)[C@H](CN2CCOCC2)NC(=O)CSC[C@@H](C(=O)NCC(N)=O)NC1=O` [Example 640] ({CH2CO}-[Ala(morpholin-4-yl)][Bip][Bip(4'-NH)](Indazole3carbonyl(1-CH2COOH))[Sar][2Pal]D[X21]VPV[2Thi]LCG-NH2; thioether N-13) was 50 to 200 nM.

The same assay, now with this note: HEK-Blue-CD40L cells, NF-kB-driven secreted alkaline phosphatase reporter; TNFα 0.5 ng/ml; 18 h; read-out: TNF induced HEK-Blue assay IC50 value.
With `CC[C@H](C)[C@@H]1NC(=O)[C@@H]2CCCN2C(=O)[C@H]([C@@H](C)CC)NC(=O)[C@@H](CCCNC(=N)N)NC(=O)[C@H](CC(=O)O)NC(=O)[C@H](Cc2ccccn2)NC(=O)CN(C)C(=O)[C@H](Cc2ccc(-c3ccc(NC(C)=O)cc3)cc2)NC(=O)[C@H](Cc2ccc(-c3ccccc3)cc2)NC(=O)[C@H](CC2CCCCC2)NC(=O)CSC[C@@H](C(=O)NCC(N)=O)NC(=O)[C@H](CC(C)C)NC(=O)[C@H](Cc2cccc(C(N)=O)c2)NC1=O` [Example 285] ({CH2CO}-[Cha][Bip][Bip(4'-NHAc)][Sar][2Pal]D[dR]IPI[Phe(3-CONH2)]LCG-NH2; thioether N-13), the IC50 was under 50 nM.
On the same count and under the same terms, the value for `CC(=O)Nc1ccc(-c2ccc(C[C@@H]3NC(=O)[C@H](Cc4ccc(-c5ccccc5)cc4)NC(=O)[C@H](CN4CCOCC4)NC(=O)CSC[C@@H](C(=O)NCC(N)=O)NC(=O)[C@H](CC(C)C)NC(=O)[C@H](Cc4ncc[nH]4)NC(=O)[C@H](C(C)C)NC(=O)[C@@H]4CCCN4C(=O)[C@H](C(C)C)NC(=O)[C@@H](CCCNC(=N)N)NC(=O)[C@H](CC(=O)O)NC(=O)[C@H](Cc4cccs4)NC(=O)CN(C)C3=O)cc2)cc1` [Example 461] ({CH2CO}-[Ala(morpholin-4-yl)][Bip][Bip(4'-NHAc)][Sar][2Thi]D[dR]VPV[Ala(imidazol-2-yl)]LCG-NH2; thioether N-13) was under 50 nM; that for `CC(C)C[C@@H]1NC(=O)[C@H](CCCNC(=N)N)NC(=O)[C@H](C(C)C)NC(=O)[C@@H]2CCCN2C(=O)[C@H](C(C)C)NC(=O)[C@@H](CCCNC(=N)NCc2cccc(C(=O)O)c2)NC(=O)[C@H](CC(=O)O)NC(=O)[C@@H]2CCCN2C(=O)CN(C)C(=O)[C@H](Cc2ccc(-c3ccc(NC(=O)c4cccc(CC(=O)O)c4)cc3)cc2)NC(=O)[C@H](Cc2ccc(-c3ccccc3)cc2)NC(=O)[C@H](CN2CCOCC2)NC(=O)CSC[C@@H](C(=O)NCC(N)=O)NC1=O` [Example 543] ({CH2CO}-[Ala(morpholin-4-yl)][Bip][Bip(4'-NHCO-C6H4-3-CH2COOH)][Sar]PD[X36]VPVRLCG-NH2; thioether N-13) was 200 to 2000 nM.
Regarding `CC(C)C[C@@H]1NC(=O)[C@H](Cc2ccccn2)NC(=O)[C@H](C(C)C)NC(=O)[C@@H]2CCCN2C(=O)[C@H](C(C)C)NC(=O)[C@H](CCCNC(=N)N)NC(=O)[C@H](CC(=O)O)NC(=O)[C@@H]2CCCN2C(=O)CN(C)C(=O)[C@H](Cc2ccc(-c3ccccc3)cc2)NC(=O)[C@H](Cc2ccc(-c3ccccc3)cc2)NC(=O)[C@H](Cc2ccccc2)NC(=O)CSC[C@@H](C(=O)NCC(N)=O)NC1=O` [Example 34] ({CH2CO}-F[Bip][Bip][Sar]PDRVPV[2Pal]LCG-NH2; thioether N-13), the half-inhibitory concentration (IC50) was in the range of 200 to 2000 nM.
Still for that read-out and setting: for `CC(=O)Nc1ccc(-c2ccc(C[C@@H]3NC(=O)[C@H](Cc4ccc(-c5ccccc5)cc4)NC(=O)[C@H](CN4CCOCC4)NC(=O)CSC[C@@H](C(=O)N[C@@H](CCCCN)C(=O)O)NC(=O)[C@H](CC(C)C)NC(=O)[C@H](CCCNC(=N)N)NC(=O)[C@H](C(C)C)NC(=O)[C@@H]4CCCN4C(=O)[C@H](C(C)C)NC(=O)[C@@H](CCCNC(=N)N)NC(=O)[C@H](CC(=O)O)NC(=O)[C@@H]4CCCN4C(=O)CN(C)C3=O)cc2)cc1` [Example 169] ({CH2CO}-[Ala(morpholin-4-yl)][Bip][Bip(4'-NHAc)][Sar]PD[dR]VPVRLCK-OH; thioether N-13) the value was under 50 nM; for `CC(=O)Nc1ccc(-c2ccc(C[C@@H]3NC(=O)[C@H](Cc4ccc(-c5ccc(C(=O)O)cc5)cc4)NC(=O)[C@H](CC4CCCCC4)NC(=O)CSC[C@@H](C(=O)NCC(N)=O)NC(=O)[C@H](CC(C)C)NC(=O)[C@H](Cc4cnc[nH]4)NC(=O)[C@H](C(C)C)NC(=O)[C@@H]4CCN4C(=O)[C@H](C(C)C)NC(=O)[C@@H](CCCNC(=N)N)NC(=O)[C@H](CC(=O)O)NC(=O)[C@H](Cc4ccc(O)cc4)NC(=O)CN(C)C3=O)cc2)cc1` [Example 271] ({CH2CO}-[Cha][Bip(4'-COOH)][Bip(4'-NHAc)][Sar]YD[dR]V[Aze]VHLCG-NH2; thioether N-13), 50 to 200 nM.
The same measure, in the same setting: the value for `CC(=O)Nc1ccc(-c2ccc(C[C@@H]3NC(=O)[C@H](Cc4ccc(-c5ccc(C(=O)O)cc5)cc4)NC(=O)[C@H](CN4CCOCC4)NC(=O)CSC[C@@H](C(=O)NCC(N)=O)NC(=O)[C@H](CC(C)C)NC(=O)[C@H](CCCNC(=N)N)NC(=O)[C@H](C(C)C)NC(=O)[C@@H]4CCCN4C(=O)[C@H](C(C)C)NC(=O)[C@@H](CCCNC(=N)N)NC(=O)[C@H](CC(=O)O)NC(=O)[C@@H]4CCCN4C(=O)CN(C)C3=O)cc2)cc1` [Example 165] ({CH2CO}-[Ala(morpholin-4-yl)][Bip(4'-COOH)][Bip(4'-NHAc)][Sar]PD[dR]VPVRLCG-NH2; thioether N-13) was under 50 nM; that for `CC[C@H](C)[C@@H]1NC(=O)[C@@H](CCCNC(=N)N)NC(=O)[C@H](CC(=O)O)NC(=O)[C@H](Cc2cnc[nH]2)NC(=O)CN(C)C(=O)[C@H](Cc2ccc(-c3ccc(NC(=O)[C@@H](N)Cc4cn(CC(=O)O)c5ccccc45)cc3)cc2)NC(=O)[C@H](Cc2ccc(-c3ccccc3)cc2)NC(=O)[C@H](CC2CCCCC2)NC(=O)CSC[C@@H](C(=O)NCC(N)=O)NC(=O)[C@H](CC(C)C)NC(=O)[C@H](Cc2ncc[nH]2)NC(=O)[C@H](C(C)C)NC(=O)C2CCCN2C1=O` (stereo partly drawn) [Example 420] ({CH2CO}-[Cha][Bip][Bip(4'-NH)](Trp(1-CH2COOH))[Sar]HD[dR]I[ξP]V[Ala(imidazol-2-yl)]LCG-NH2; thioether N-13) was 50 to 200 nM.
Still for that read-out and setting: for `CC(C)C[C@@H]1NC(=O)[C@H](CCCNC(=N)N)NC(=O)[C@H](C(C)C)NC(=O)[C@@H]2CCCN2C(=O)[C@H](Cc2ccc(O)cc2)NC(=O)[C@H](CCCNC(=N)N)NC(=O)[C@H](CC(=O)O)NC(=O)[C@@H]2CCCN2C(=O)CN(C)C(=O)[C@H](Cc2ccc(-c3ccccc3)cc2)NC(=O)[C@H](Cc2ccc(-c3ccccc3)cc2)NC(=O)[C@H](Cc2ccccc2)NC(=O)CSC[C@@H](C(=O)NCC(N)=O)NC1=O` [Example 15] ({CH2CO}-F[Bip][Bip][Sar]PDRYPVRLCG-NH2; thioether N-13) the value was 200 to 2000 nM.
With `CC(=O)Nc1ccc(-c2ccc(C[C@@H]3NC(=O)[C@H](Cc4ccc(-c5ccccc5)cc4)NC(=O)[C@H](CN4CCOCC4)NC(=O)CSC[C@@H](C(=O)NCC(N)=O)NC(=O)[C@H](CC(C)C)NC(=O)[C@H](Cc4ccc(O)cc4)NC(=O)[C@H](C(C)C)NC(=O)[C@@H]4CCCN4C(=O)[C@H](Cc4ccc(O)cc4)NC(=O)[C@@H](CCCNC(=N)N)NC(=O)[C@H](CC(=O)O)NC(=O)[C@H](Cc4ccccn4)NC(=O)CN(C)C3=O)cc2)cc1` [Example 177] ({CH2CO}-[Ala(morpholin-4-yl)][Bip][Bip(4'-NHAc)][Sar][2Pal]D[dR]YPVYLCG-NH2; thioether N-13), the IC50 is 50 to 200 nM.
On to `CC[C@H](C)[C@@H]1NC(=O)[C@@H]2CCCN2C(=O)[C@H]([C@@H](C)CC)NC(=O)[C@@H](CCCNC(=N)N)NC(=O)[C@H](CC(=O)O)NC(=O)[C@H](Cc2ccccc2)NC(=O)CN(C)C(=O)[C@H](Cc2ccc(-c3ccc(CNC(=O)c4cccc(OCC(=O)O)c4)cc3)cc2)NC(=O)[C@H](Cc2ccc(-c3ccccc3)cc2)NC(=O)[C@H](CC2CCCCC2)NC(=O)CSC[C@@H](C(=O)NCC(N)=O)NC(=O)[C@H](CC(C)C)NC(=O)[C@H](Cc2ncc[nH]2)NC1=O` [Example 399] ({CH2CO}-[Cha][Bip][X70](Benzoyl(3-OCH2COOH))[Sar]FD[dR]IPI[Ala(imidazol-2-yl)]LCG-NH2; thioether N-13), for which the IC50 lay within 200 to 2000 nM.
The same measure, in the same setting: for `CC(C)C[C@@H]1NC(=O)[C@H](Cc2ccc(O)cc2)NC(=O)[C@H](C(C)C)NC(=O)[C@@H]2C[C@@H](O)CN2C(=O)[C@H](C(C)C)NC(=O)[C@@H](CCCNC(=N)N)NC(=O)[C@H](CC(=O)O)NC(=O)[C@@H]2CCCN2C(=O)CN(C)C(=O)[C@H](Cc2ccc(-c3ccccc3)cc2)NC(=O)[C@H](Cc2ccc(-c3ccccc3)cc2)NC(=O)[C@H](CN2CCOCC2)NC(=O)CSC[C@@H](C(=O)NCC(N)=O)NC1=O` [Example 80] ({CH2CO}-[Ala(morpholin-4-yl)][Bip][Bip][Sar]PD[dR]V[Hyp]VYLCG-NH2; thioether N-13) the value was 200 to 2000 nM; for `CC(C)C[C@@H]1NC(=O)CSC[C@@H](C(=O)NCC(N)=O)NC(=O)[C@H](CC(C)C)NC(=O)[C@H](CCCNC(=N)N)NC(=O)[C@H](C(C)C)NC(=O)[C@@H]2CCCN2C(=O)[C@H](C(C)C)NC(=O)[C@H](CCCNC(=N)N)NC(=O)[C@H](CC(=O)O)NC(=O)[C@@H]2CCCN2C(=O)CN(C)C(=O)[C@H](Cc2ccc(-c3ccccc3)cc2)NC(=O)[C@H](Cc2ccc(-c3ccccc3)cc2)NC1=O` [Example 8] ({CH2CO}-L[Bip][Bip][Sar]PDRVPVRLCG-NH2; thioether N-13), 200 to 2000 nM.
